Tested on: TPM3-NTRK1-wt IC50 / primary target (e.g. CD74-ROS1-wt) IC50, Ba/F3 cells
Experiment: Cell assay TRKA selectivity (TRKA potency divided by primary target potency)
Type: cell-based
Conditions: for TPM3-NTRK1-wt/CD74-ROS1-G2032R: TRKA selectivity ratio: TPM3-NTRK1-wt IC50 / CD74-ROS1-G2032R IC50, Ba/F3 cells; for TPM3-NTRK1-wt/CD74-ROS1-wt: TRKA selectivity ratio: TPM3-NTRK1-wt IC50 / CD74-ROS1-wt IC50, Ba/F3 cells; for TPM3-NTRK1-wt/EML4-ALK-L1196M-G1202R: TRKA selectivity ratio: TPM3-NTRK1-wt IC50 / EML4-ALK-L1196M-G1202R IC50, Ba/F3 cells; for TPM3-NTRK1-wt/EML4-ALK-wt: TRKA selectivity ratio: TPM3-NTRK1-wt IC50 / EML4-ALK-wt IC50, Ba/F3 cells
Method in brief: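 IL-3-independent Ba/F3 lines stably expressing TPM3-TRKA or the primary fusion (e.g. CD74-ROS1 wt) were exposed to 3-fold compound dilutions for 72 h. Viability was read by CellTiter-Glo luminescence, with IC50 from four-parameter logistic fit. Selectivity is TPM3-NTRK1 IC50 divided by primary-target IC50, binned A (>30-fold) to D (<1).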

Row | SMILES | TPM3-NTRK1-wt/CD74-ROS1-G2032R | TPM3-NTRK1-wt/CD74-ROS1-wt | TPM3-NTRK1-wt/EML4-ALK-L1196M-G1202R | TPM3-NTRK1-wt/EML4-ALK-wt
1 | C[C@H]1Oc2cc(cnc2N)-c2c(CC(F)F)nn(C)c2Cc2cc(C(F)F)nn2-c2ccc(F)cc21 [Example 180, (19R)-3-(2,2-difluoroethyl)-10-(difluoromethyl)-16-fluoro-5,19-dimethyl-20-oxa-4,5,11,12,23-pentaazapentacyclo[19.3.1.0^2,^6.0^8,^12.0^13,^18]pentacosa-1(24),2(6),3,8,10,13,15,17,21(25),22-decaen-22-amine] | A (bin A for very high selectivity, ratio>30-fold) | A (bin A for very high selectivity, ratio>30-fold) | C (bin C for moderate selectivity, ratio≥1) | A (bin A for very high selectivity, ratio>30-fold)
2 | CC(C)Cn1ncc2c1-c1cnc(N)c(c1)O[C@H](C)c1cc(F)ccc1-c1nn(C)cc1C2 [Example 154, (19R)-16-fluoro-10,19-dimethyl-3-(2-methylpropyl)-20-oxa-3,4,10,11,23-pentaazapentacyclo[19.3.1.0^2,^6.0^8,^12.0^13,^18]pentacosa-1(24),2(6),4,8,11,13,15,17,21(25),22-decaen-22-amine] | A (bin A for very high selectivity, ratio>30-fold) | A (bin A for very high selectivity, ratio>30-fold) | B (bin B for high selectivity, ratio>10-fold) | A (bin A for very high selectivity, ratio>30-fold)
3 | Cc1nn(CC2CC2)c2c1Cc1c(nn(C)c1Cl)-c1ccc(F)cc1[C@@H](C)Oc1cc-2cnc1N [Example 54, (19R)-9-chloro-3-(cyclopropylmethyl)-16-fluoro-5,10,19-trimethyl-20-oxa-3,4,10,11,23-pentaazapentacyclo[19.3.1.0^2,^6.0^8,^12.0^13,^18]pentacosa-1(24),2(6),4,8,11,13,15,17,21(25),22-decaen-22-amine] | A (bin A for very high selectivity, ratio>30-fold) | A (bin A for very high selectivity, ratio>30-fold) | B (bin B for high selectivity, ratio>10-fold) | A (bin A for very high selectivity, ratio>30-fold)
4 | CCn1nnc2c1-c1cnc(N)c(c1)O[C@H](C)c1cc(F)ccc1-c1sncc1C2 [Example 93, (19R)-3-ethyl-16-fluoro-19-methyl-20-oxa-11-thia-3,4,5,10,23-pentaazapentacyclo[19.3.1.0^2,^6.0^8,^12.0^13,^18]pentacosa-1(24),2(6),4,8(12),9,13,15,17,21(25),22-decaen-22-amine] | A (bin A for very high selectivity, ratio>30-fold) | A (bin A for very high selectivity, ratio>30-fold) | C (bin C for moderate selectivity, ratio≥1) | B (bin B for high selectivity, ratio>10-fold)
5 | CCn1ncc2c1-c1cnc(N)c(c1)O[C@H](C)c1cc(F)ccc1-n1nc(C(F)(F)F)cc1C2 [Example 52, (19R)-3-ethyl-16-fluoro-19-methyl-10-(trifluoromethyl)-20-oxa-3,4,11,12,23-pentaazapentacyclo[19.3.1.0^2,^6.0^8,^12.0^13,^18]pentacosa-1(24),2(6),4,8,10,13,15,17,21(25),22-decaen-22-amine] | A (bin A for very high selectivity, ratio>30-fold) | A (bin A for very high selectivity, ratio>30-fold) | C (bin C for moderate selectivity, ratio≥1) | B (bin B for high selectivity, ratio>10-fold)
6 | C[C@H]1Oc2cc(cnc2N)-c2c(CC3CC3)cnn2Cc2cccnc2-c2ccc(F)cc21 [Example 146, (20R)-3-(cyclopropylmethyl)-17-fluoro-20-methyl-21-oxa-5,6,12,24-tetraazapentacyclo[20.3.1.0^2,^6.0^8,^13.0^14,^19]hexacosa-1(25),2,4,8(13),9,11,14,16,18,22(26),23-undecaen-23-amine] | A (bin A for very high selectivity, ratio>30-fold) | A (bin A for very high selectivity, ratio>30-fold) | B (bin B for high selectivity, ratio>10-fold) | A (bin A for very high selectivity, ratio>30-fold)
7 | Cc1nn(CC(F)F)c2c1Cc1cn(C)nc1-c1ccc(F)cc1[C@@H](C)Oc1cc-2cnc1N [Example 79, (19R)-3-(2,2-difluoroethyl)-16-fluoro-5,10,19-trimethyl-20-oxa-3,4,10,11,23-pentaazapentacyclo[19.3.1.0^2,^6.0^8,^12.0^13,^18]pentacosa-1(24),2(6),4,8,11,13,15,17,21(25),22-decaen-22-amine] | A (bin A for very high selectivity, ratio>30-fold) | A (bin A for very high selectivity, ratio>30-fold) | A (bin A for very high selectivity, ratio>30-fold) | A (bin A for very high selectivity, ratio>30-fold)
8 | Cc1nn(CC2CC2)c2c1Cc1cn(C)nc1-c1ccc(F)cc1[C@@H](C)Oc1cc-2cnc1N [Example 53, (19R)-3-(cyclopropylmethyl)-16-fluoro-5,10,19-trimethyl-20-oxa-3,4,10,11,23-pentaazapentacyclo[19.3.1.0^2,^6.0^8,^12.0^13,^18]pentacosa-1(24),2(6),4,8,11,13,15,17,21(25),22-decaen-22-amine] | A (bin A for very high selectivity, ratio>30-fold) | A (bin A for very high selectivity, ratio>30-fold) | A (bin A for very high selectivity, ratio>30-fold) | A (bin A for very high selectivity, ratio>30-fold)
9 | CCc1onc2c1-c1cnc(N)c(c1)O[C@H](C)c1cc(F)ccc1-c1nn(C)cc1C2 [Example 152, (19R)-3-ethyl-16-fluoro-10,19-dimethyl-4,20-dioxa-5,10,11,23-tetraazapentacyclo[19.3.1.0^2,^6.0^8,^12.0^13,^18]pentacosa-1(24),2,5,8,11,13,15,17,21(25),22-decaen-22-amine] | A (bin A for very high selectivity, ratio>30-fold) | A (bin A for very high selectivity, ratio>30-fold) | C (bin C for moderate selectivity, ratio≥1) | A (bin A for very high selectivity, ratio>30-fold)
10 | C[C@H]1Oc2cc(cnc2N)-c2c(C#N)noc2Cc2cn(C)nc2-c2ccc(F)cc21 [Example 15, (19R)-22-amino-16-fluoro-10,19-dimethyl-5,20-dioxa-4,10,11,23-tetraazapentacyclo[19.3.1.0^2,^6.0^8,^12.0^13,^18]pentacosa-1(24),2(6),3,8,11,13(18),14,16,21(25),22-decaene-3-carbonitrile] | A (bin A for very high selectivity, ratio>30-fold) | A (bin A for very high selectivity, ratio>30-fold) | B (bin B for high selectivity, ratio>10-fold) | A (bin A for very high selectivity, ratio>30-fold)

Reference: patent US11667649B2, “Heteroaromatic macrocyclic ether chemotherapeutic agents” (Nuvalent, Inc., priority 2020, dated 2023)
